Measured values reported in patent US8192962B2, “Processes for detecting toxic substances” (Daikin Industries, Ltd., priority 2001, dated 2012).

System: Mitochondria-located protein genes
Assay: DNA chip mRNA expression in yeast, mitochondria-located protein genes (Table 2)
Assay type: cell-based, Saccharomyces cerevisiae S288C
Settings: cells incubated two hours with the chemical substance
Experimental: Yeast (Saccharomyces cerevisiae S288C (α SUC2mal mel gap2 CUP1)) were incubated at 25° C. on YPD medium (yeast extract 1%, polypepton 2%, glucose 2%). One of toxic chemical substances was added to the cells at logarithmic growth phase, and the cells were further incubated for two hours. Cells were cultured without any chemical substance in the same condition, and were used as control. Concentrations of the chemical substances were defined to inhibit the growth of the yeast but not lead to death.
After completion of the incubation, the culture was centrifuged to collect the cells. To the cells, sodium acetate buffer (50 mM sodium acetate, 10 mM EDTA, 1% SDS) was added, and the mixture was shaken at 65° C. for five minutes, followed by returning to room temperature, and obtaining the supernatant, of which the procedures were repeated two times. To the supernatant, ½ amount of a solution of phenol/chloroform was added, and the mixture was centrifuged to give a supernatant, which was added with an equal amount of chloroform, and the mixture was centrifuged to give a supernatant. To the supernatant, an equal amount of isopropanol containing 0.3 M sodium acetate was added, and the mixture was allowed to stand at room temperature for 30 minutes, after which the mixture was centrifuged to give a sediment of the whole RNAs. Seventy % ethanol was added to the sediment, and the mixture was again centrifuged to give a sediment, which was then dried and dissolved in water. mRNA was isolated from the whole RNAs as followings. In view of the fact that a poly A chain is attached to the 3′ terminus of mRNA, a polynucleotide having a poly T structure which was immobilized on the surface of latex beads was used to trap the mRNA, and then the mRNA was washed and eluted with spine column (Oligotex-dT30<Super>mRNA Purification Kit, Takara). Reverse transcription of the mRNA was conducted with a reverse transcriptase (Super Script II Reverse Transcriptase; catalogue No. 18064-014, GibcoBRL) using fluorescence-labeled nucleotides to give cDNAs that were introduced with Cy3-dUTP or Cy5-dUTP during the reverse transcription.
The labeled cDNAs were dissolved in TE buffer (10mM Tris-HCl/1 mM EDTA, pH8.0), and the solution was dropped on the DNA chip containing the whole genes of yeast (DNA Chip Research Inc. Japan) so that the cDNAs were hybridized on the DNA chip at 65° C. for over 12 hours. The fluoresces intensity of the DNA chip was read with a scanner, and the ratio relative to the fluorescence intensity resulting from the absence of chemical substance was estimated as the following, which is shown in Tables 1 to 9: […]

CN(C)C(=S)SSC(=S)N(C)C [(10), Tetramethylthiuram disulfide]
The level of expressed mRNA in the presence of chemical substance/The level of expressed mRNA in the absence of chemical substance (yeast gene YJR121W): 1.3
The level of expressed mRNA in the presence of chemical substance/The level of expressed mRNA in the absence of chemical substance (yeast gene YKL003C): 2.2
The level of expressed mRNA in the presence of chemical substance/The level of expressed mRNA in the absence of chemical substance (yeast gene YKL016C): 1.8
The level of expressed mRNA in the presence of chemical substance/The level of expressed mRNA in the absence of chemical substance (yeast gene YKL141W): 0.5
The level of expressed mRNA in the presence of chemical substance/The level of expressed mRNA in the absence of chemical substance (yeast gene YKL142W): 5.9
The level of expressed mRNA in the presence of chemical substance/The level of expressed mRNA in the absence of chemical substance (yeast gene YKL148C): 1.7
The level of expressed mRNA in the presence of chemical substance/The level of expressed mRNA in the absence of chemical substance (yeast gene YKL170W): 1.1
The level of expressed mRNA in the presence of chemical substance/The level of expressed mRNA in the absence of chemical substance (yeast gene YKL194C): 1.4
The level of expressed mRNA in the presence of chemical substance/The level of expressed mRNA in the absence of chemical substance (yeast gene YKR066C): 2.4
The level of expressed mRNA in the presence of chemical substance/The level of expressed mRNA in the absence of chemical substance (yeast gene YLL041C): 0.8
The level of expressed mRNA in the presence of chemical substance/The level of expressed mRNA in the absence of chemical substance (yeast gene YLR038C): 0.9
The level of expressed mRNA in the presence of chemical substance/The level of expressed mRNA in the absence of chemical substance (yeast gene YLR259C): 2.6
The level of expressed mRNA in the presence of chemical substance/The level of expressed mRNA in the absence of chemical substance (yeast gene YLR295C): 1.2
The level of expressed mRNA in the presence of chemical substance/The level of expressed mRNA in the absence of chemical substance (yeast gene YLR304C): 2.2
The level of expressed mRNA in the presence of chemical substance/The level of expressed mRNA in the absence of chemical substance (yeast gene YLR348C): 1.3
The level of expressed mRNA in the presence of chemical substance/The level of expressed mRNA in the absence of chemical substance (yeast gene YLR395C): 0.9
The level of expressed mRNA in the presence of chemical substance/The level of expressed mRNA in the absence of chemical substance (yeast gene YML054C): 1.8
The level of expressed mRNA in the presence of chemical substance/The level of expressed mRNA in the absence of chemical substance (yeast gene YML120C): 1.5
The level of expressed mRNA in the presence of chemical substance/The level of expressed mRNA in the absence of chemical substance (yeast gene YML129C): 2.2
The level of expressed mRNA in the presence of chemical substance/The level of expressed mRNA in the absence of chemical substance (yeast gene YMR023C): 2.6
The level of expressed mRNA in the presence of chemical substance/The level of expressed mRNA in the absence of chemical substance (yeast gene YMR035W): 1.6
The level of expressed mRNA in the presence of chemical substance/The level of expressed mRNA in the absence of chemical substance (yeast gene YMR083W): 1.1
The level of expressed mRNA in the presence of chemical substance/The level of expressed mRNA in the absence of chemical substance (yeast gene YMR089C): 2.5
The level of expressed mRNA in the presence of chemical substance/The level of expressed mRNA in the absence of chemical substance (yeast gene YMR152W): 1.3
The level of expressed mRNA in the presence of chemical substance/The level of expressed mRNA in the absence of chemical substance (yeast gene YMR203W): 1.2
The level of expressed mRNA in the presence of chemical substance/The level of expressed mRNA in the absence of chemical substance (yeast gene YMR267W): 0.8
The level of expressed mRNA in the presence of chemical substance/The level of expressed mRNA in the absence of chemical substance (yeast gene YNL055C): 1.0
The level of expressed mRNA in the presence of chemical substance/The level of expressed mRNA in the absence of chemical substance (yeast gene YNL071W): 1.2
The level of expressed mRNA in the presence of chemical substance/The level of expressed mRNA in the absence of chemical substance (yeast gene YNL073W): 1.8
The level of expressed mRNA in the presence of chemical substance/The level of expressed mRNA in the absence of chemical substance (yeast gene YNL104C): 2.0
The level of expressed mRNA in the presence of chemical substance/The level of expressed mRNA in the absence of chemical substance (yeast gene YNL256W): 0.6
The level of expressed mRNA in the presence of chemical substance/The level of expressed mRNA in the absence of chemical substance (yeast gene YOL096C): 1.4
The level of expressed mRNA in the presence of chemical substance/The level of expressed mRNA in the absence of chemical substance (yeast gene YOR020C): 2.6
The level of expressed mRNA in the presence of chemical substance/The level of expressed mRNA in the absence of chemical substance (yeast gene YOR037W): 1.0
The level of expressed mRNA in the presence of chemical substance/The level of expressed mRNA in the absence of chemical substance (yeast gene YOR100C): 2.6
The level of expressed mRNA in the presence of chemical substance/The level of expressed mRNA in the absence of chemical substance (yeast gene YOR130C): 1.7
The level of expressed mRNA in the presence of chemical substance/The level of expressed mRNA in the absence of chemical substance (yeast gene YOR142W): 1.5
The level of expressed mRNA in the presence of chemical substance/The level of expressed mRNA in the absence of chemical substance (yeast gene YOR150W): 1.8
The level of expressed mRNA in the presence of chemical substance/The level of expressed mRNA in the absence of chemical substance (yeast gene YOR176W): 0.5
The level of expressed mRNA in the presence of chemical substance/The level of expressed mRNA in the absence of chemical substance (yeast gene YOR187W): 0.8
The level of expressed mRNA in the presence of chemical substance/The level of expressed mRNA in the absence of chemical substance (yeast gene YOR316C): 2.0
The level of expressed mRNA in the presence of chemical substance/The level of expressed mRNA in the absence of chemical substance (yeast gene YPL040C): 1.2
The level of expressed mRNA in the presence of chemical substance/The level of expressed mRNA in the absence of chemical substance (yeast gene YPL134C): 0.8
The level of expressed mRNA in the presence of chemical substance/The level of expressed mRNA in the absence of chemical substance (yeast gene YPL135W): 2.8
The level of expressed mRNA in the presence of chemical substance/The level of expressed mRNA in the absence of chemical substance (yeast gene YPL215W): 1.2
The level of expressed mRNA in the presence of chemical substance/The level of expressed mRNA in the absence of chemical substance (yeast gene YPL262W): 5.8
The level of expressed mRNA in the presence of chemical substance/The level of expressed mRNA in the absence of chemical substance (yeast gene YPR024W): 1.7
The level of expressed mRNA in the presence of chemical substance/The level of expressed mRNA in the absence of chemical substance (yeast gene YPR037C): 1.3
The level of expressed mRNA in the presence of chemical substance/The level of expressed mRNA in the absence of chemical substance (yeast gene YPR047W): 1.9
The level of expressed mRNA in the presence of chemical substance/The level of expressed mRNA in the absence of chemical substance (yeast gene YPR134W): 2.3
